Measured values: PubChem BioAssay AID330 (DTP/NCI, 2004)
Several values for one entry are separate records, joined by “and”; a condition that tells them apart may be missing. Equal entries are not always repeated. Toxic doses and inconclusive results are not listed. Peptide text beside a SMILES is read from it. * marks the point of attachment. Boc = CC(C)(C)OC(=O)*; NHNH2 = NN*

Tested on: P388 leukemia ip, CD2F1 mice, survival T/C
Test: NCI In Vivo Anticancer Drug Screen. Data for tumor model P388 Leukemia (intraperitoneal) in CD2F1 (CDF1) mice
Conditions: endpoint: median survival time, higher = longer survival
Summary of the method: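 Mice carrying the transplanted tumor received test compound or vehicle. Survival was recorded in each group, and the value is the treated-group measurement divided by that of the vehicle-treated control group.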

[1] = dose: 100.0 mg/kg/injection, schedule: Q01DX005 (ip), vehicle: saline with Tween-80
[2] = dose: 50.0 mg/kg/injection, schedule: Q01DX001 (ip), vehicle: Klucel (hydroxypropylcellulose) (HPC)
[3] = dose: 100.0 mg/kg/injection, schedule: Q01DX001 (ip), vehicle: Klucel (hydroxypropylcellulose) (HPC)
[4] = dose: 200.0 mg/kg/injection, schedule: Q01DX001 (ip), vehicle: Klucel (hydroxypropylcellulose) (HPC)
[5] = dose: 50.0 mg/kg/injection, schedule: Q01DX009 (ip), vehicle: Klucel (hydroxypropylcellulose) (HPC)
[6] = dose: 100.0 mg/kg/injection, schedule: Q01DX009 (ip), vehicle: Klucel (hydroxypropylcellulose) (HPC)
[7] = dose: 200.0 mg/kg/injection, schedule: Q01DX009 (ip), vehicle: Klucel (hydroxypropylcellulose) (HPC)
[8] = dose: 25.0 mg/kg/injection, schedule: Q01DX001 (ip), vehicle: saline
[9] = dose: 50.0 mg/kg/injection, schedule: Q01DX001 (ip), vehicle: saline
[10] = dose: 100.0 mg/kg/injection, schedule: Q01DX001 (ip), vehicle: saline

O=NNc1ccc(Cl)cn1
T/C (dose: 3.12 mg/kg/injection, schedule: Q01DX009 (ip), vehicle: water): 123 % of control | T/C (dose: 12.5 mg/kg/injection, schedule: Q01DX009 (ip), vehicle: water): 187 % of control

COC(=O)CN1C(=O)c2cccc3cc(N)cc(c23)C1=O
T/C [1]: 87 % of control

O=S(=O)(/N=C1C=C/C(=N\S(=O)(=O)c2ccccc2)C2C/1C2(c1ccccc1)c1ccccc1)c1ccccc1 (stereo not given)
T/C [2]: 98 % of control | T/C [3]: 97 % of control | T/C [4]: 99 % of control

CN(C)/C=C(\C#N)C=O
T/C (dose: 18.75 mg/kg/injection, schedule: Q01DX009 (ip), vehicle: saline sonified): 118 % of control | T/C (dose: 37.5 mg/kg/injection, schedule: Q01DX009 (ip), vehicle: saline sonified): 109 % of control

CCCCOC(=O)NCNC(=O)OCCCC
T/C [5]: 99 % of control | T/C [6]: 100 % of control | T/C [7]: 94 % of control

CCN(CC)C(=O)c1nc(-c2cccc3ccccc23)no1
T/C [5]: 100 % of control | T/C [6]: 97 % of control | T/C [7]: 98 % of control

COc1ccc(/C=C/C(=O)c2ccccc(=O)c2O)cc1
T/C [2]: 106 % of control | T/C [3]: 101 % of control | T/C [4]: 105 % of control | T/C (dose: 400.0 mg/kg/injection, schedule: Q01DX001 (ip), vehicle: Klucel (hydroxypropylcellulose) (HPC)): 92 % of control

COc1ccc(C(=O)c2ccc(OCCBr)cc2)c(O)c1
T/C (dose: 50.0 mg/kg/injection, schedule: Q01DX005 (ip), vehicle: saline with Tween-80): 92 % of control | T/C [1]: 88 % of control | T/C (dose: 200.0 mg/kg/injection, schedule: Q01DX005 (ip), vehicle: saline with Tween-80): 88 % of control

O=C(N=C=S)c1ccccc1
T/C (dose: 100.0 mg/kg/injection, schedule: Q04DX003 (ip), vehicle: other): 90 % of control | T/C (dose: 200.0 mg/kg/injection, schedule: Q04DX003 (ip), vehicle: other): 100 % of control | T/C (dose: 400.0 mg/kg/injection, schedule: Q04DX003 (ip), vehicle: other): 109 % of control

Oc1c(Cl)cc(Cl)cc1CN1CCOCC1
T/C (dose: 50.0 mg/kg/injection, schedule: Q01DX009 (ip), vehicle: suspension in saline): 89 % of control | T/C (dose: 100.0 mg/kg/injection, schedule: Q01DX009 (ip), vehicle: suspension in saline): 87 % of control | T/C (dose: 200.0 mg/kg/injection, schedule: Q01DX009 (ip), vehicle: suspension in saline): 98 % of control | T/C (dose: 400.0 mg/kg/injection, schedule: Q01DX009 (ip), vehicle: suspension in saline): 109 % of control

CS(=O)(=O)c1cc(=O)[nH]c(=O)[nH]1
T/C (dose: 25.0 mg/kg/injection, schedule: Q01DX009 (ip), vehicle: saline with Tween-80): 90 % of control | T/C (dose: 50.0 mg/kg/injection, schedule: Q01DX009 (ip), vehicle: saline with Tween-80): 95 % of control | T/C (dose: 100.0 mg/kg/injection, schedule: Q01DX009 (ip), vehicle: saline with Tween-80): 100 % of control | T/C (dose: 200.0 mg/kg/injection, schedule: Q01DX009 (ip), vehicle: saline with Tween-80): 95 % of control

O=C(O)Cc1c[nH]c2c(Cl)ccc(Cl)c12
T/C (dose: 100.0 mg/kg/injection, schedule: Q01DX001 (ip), vehicle: saline with Tween-80): 101 % of control | T/C (dose: 200.0 mg/kg/injection, schedule: Q01DX001 (ip), vehicle: saline with Tween-80): 100 % of control

COc1cc(/C=N/NC(=O)c2cc(OC)c(OC)c(OC)c2)ccc1O
T/C (dose: 60.0 mg/kg/injection, schedule: Q01DX005 (ip), vehicle: saline with Tween-80): 99 % of control | T/C (dose: 120.0 mg/kg/injection, schedule: Q01DX005 (ip), vehicle: saline with Tween-80): 101 % of control | T/C (dose: 240.0 mg/kg/injection, schedule: Q01DX005 (ip), vehicle: saline with Tween-80): 95 % of control

CC(=O)OCC1OC(OC(C)=O)C(N(CCCl)CCCl)C(OC(C)=O)C1OC(C)=O (stereo not given)
T/C (dose: 0.31 mg/kg/injection, schedule: Q01DX005 (ip), vehicle: water): 151 % of control | T/C (dose: 0.62 mg/kg/injection, schedule: Q01DX005 (ip), vehicle: water): 151 % of control | T/C (dose: 1.25 mg/kg/injection, schedule: Q01DX005 (ip), vehicle: distilled water + Tween-80): 181 % of control | T/C (dose: 1.25 mg/kg/injection, schedule: Q01DX005 (ip), vehicle: water): 177 % of control | T/C (dose: 2.5 mg/kg/injection, schedule: Q01DX005 (ip), vehicle: distilled water + Tween-80): 216 % of control | T/C (dose: 2.5 mg/kg/injection, schedule: Q01DX005 (ip), vehicle: water): 213 % of control | T/C (dose: 5.0 mg/kg/injection, schedule: Q01DX005 (ip), vehicle: water): 110 % of control

C=C1CC2(CCCCC2Cc2ccccc2)OC1=O (stereo not given)
T/C (dose: 100.0 mg/kg/injection, schedule: Q04DX002 (ip), vehicle: saline): 100 % of control | T/C (dose: 200.0 mg/kg/injection, schedule: Q04DX002 (ip), vehicle: saline): 101 % of control | T/C (dose: 400.0 mg/kg/injection, schedule: Q04DX002 (ip), vehicle: saline): 99 % of control

COc1cc2c3c(c1)-c1c(ccc(OC)c1O)CC3N(C)CC2 (stereo not given)
T/C (dose: 6.25 mg/kg/injection, schedule: Q04DX003 (ip), vehicle: DMSO): 101 % of control | T/C (dose: 12.5 mg/kg/injection, schedule: Q04DX003 (ip), vehicle: DMSO): 101 % of control | T/C (dose: 25.0 mg/kg/injection, schedule: Q04DX003 (ip), vehicle: DMSO): 100 % of control | T/C (dose: 50.0 mg/kg/injection, schedule: Q04DX003 (ip), vehicle: DMSO): 100 % of control

CCOC(=O)NOP(=O)(N1CC1)N1CC1
T/C (dose: 12.5 mg/kg/injection, schedule: Q01DX001 (ip), vehicle: saline + alcohol): 109 % of control and 124 % of control | T/C (dose: 25.0 mg/kg/injection, schedule: Q01DX001 (ip), vehicle: saline + alcohol): 111 % of control | T/C (dose: 100.0 mg/kg/injection, schedule: Q01DX001 (ip), vehicle: saline + alcohol): 238 % of control

O=C([O][Hg][C](F)(F)F)C(F)(F)F
T/C (dose: 1.56 mg/kg/injection, schedule: Q04DX003 (ip), vehicle: saline): 104 % of control | T/C (dose: 3.13 mg/kg/injection, schedule: Q04DX003 (ip), vehicle: saline): 101 % of control

CC(Cl)CN1CC(C)OC1=O (stereo not given)
T/C [8]: 105 % of control | T/C [9]: 102 % of control | T/C [10]: 108 % of control | T/C (dose: 200.0 mg/kg/injection, schedule: Q01DX001 (ip), vehicle: saline): 108 % of control

CN(C)c1ccc2nc3ccc(=N)cc-3sc2c1
T/C (dose: 60.0 mg/kg/injection, schedule: Q01DX005 (ip), vehicle: saline): 114 % of control | T/C (dose: 120.0 mg/kg/injection, schedule: Q01DX005 (ip), vehicle: saline): 118 % of control

NC(=O)/C=C\C(=O)NC1CCSC1=O (stereo not given)
T/C (dose: 60.0 mg/kg/injection, schedule: Q01DX005 (ip), vehicle: saline + Tween-80 + alcohol): 105 % of control | T/C (dose: 120.0 mg/kg/injection, schedule: Q01DX005 (ip), vehicle: saline + Tween-80 + alcohol): 94 % of control | T/C (dose: 240.0 mg/kg/injection, schedule: Q01DX005 (ip), vehicle: saline + Tween-80 + alcohol): 100 % of control

O=S(=O)(O)C1CCC(O)C2[N-]CCCC21.O=S(=O)(O)C1CCC(O)C2[N-]CCCC21.[Ni+2] (stereo not given)
T/C [8]: 100 % of control | T/C [9]: 100 % of control | T/C [10]: 110 % of control

CC(C)(C)OC(=O)NC(Cc1c[nH]c2ccccc12)C(=O)NC(Cc1c[nH]c2ccccc12)C(=O)NN (stereo not drawn) (Boc-Trp-Trp-NHNH2; configuration not given here)
T/C (dose: 12.5 mg/kg/injection, schedule: Q01DX009 (ip), vehicle: other): 94 % of control | T/C (dose: 25.0 mg/kg/injection, schedule: Q01DX009 (ip), vehicle: other): 94 % of control | T/C (dose: 50.0 mg/kg/injection, schedule: Q01DX009 (ip), vehicle: other): 91 % of control | T/C (dose: 100.0 mg/kg/injection, schedule: Q01DX009 (ip), vehicle: other): 91 % of control | T/C (dose: 200.0 mg/kg/injection, schedule: Q01DX009 (ip), vehicle: other): 107 % of control

Nc1nc(=O)[nH]c([O-])c1N=O.Nc1nc(=O)[nH]c([O-])c1N=O.[Ag+].[Ag+]
T/C (dose: 15.0 mg/kg/injection, schedule: Q01DX005 (ip), vehicle: saline with Tween-80): 104 % of control and 86 % of control | T/C (dose: 30.0 mg/kg/injection, schedule: Q01DX005 (ip), vehicle: saline with Tween-80): 105 % of control and 89 % of control
